# Test system: experimental auto-immune encephalomyelitis (EAE) development in mice
# Test: Example 1 (repeated experiment): plasma neurofilament light (NF-L) levels in EAE mice, Simoa NF-light assay
# Assay type: in vivo, female C57BL/6 mice
# Conditions: Example 1 regimen repeated; Day 28 plasma; vs negative control
# Protocol: On Day 28, blood was collected from all mice into tubes containing K2EDTA and mixed gently. Blood was then centrifuged at ˜10000 g for 5 minutes. Plasma was transferred into Eppendorf tubes and stored at −80° C. until shipment to Quanterix™. Plasma Neurofilament light (NF-L) protein levels were quantified using Simoa® NF-light Advantage kit, a digital immunoassay for the quantitative determination of NF-L in serum, plasma and CSF. The used antibodies (Uman Diagnostics, Umea Sweden) also cross react with murine, bovine and macaque NF-L epitopes and as such, this assay can be used for research with these species. All samples were tested in duplicate at a dilution factor of 40×.
# Neurofilament light (NF-L) is a 68 kDa cytoskeletal filament protein that is expressed in neurons, as one of the major components of the neuronal cytoskeleton that provide structural support for the axon. Neurofilaments can be released following axonal damage or neuronal degeneration.
sequence,measurement,value
HCPYCGWYRSPFSRVVHLYR [IMCY-0189],plasma NF-L levels,reduced NF-L levels

# Source: patent publication US20230172894A1, “COMBINATION TREATMENT FOR FUMARATE-RELATED DISEASES” (IMCYSE SA, priority 2020, published 2023)
